Data set [1] relates to splenocytes. The data set can be described thus: Splenic cell proliferation assay (anti-IgM stimulated, Cell Titer-Glo). Type of data set: cell-based, mouse (CD1). The following applies: Splenocyte; mouse splenocytes, 2.5 μg/ml anti-IgM F(ab')2, 72 h; read-out: Spleen cell EC50. As for the experimental part:
Proliferation of splenocytes in response to anti-IgM can be blocked by inhibition of BTK. Splenocytes were obtained from 6 week old male CD1 mice (Charles River Laboratories Inc.). Mouse spleens were manually disrupted in PBS and filtered using a 70um cell strainer followed by ammonium chloride red blood cell lysis. Cells were washed, resuspended in Splenocyte Medium (HyClone RPMI supplemented with 10% heat-inactivated FBS, 0.5X non-essential amino acids, 10 mM HEPES, 50 μM beta mercaptoethanol) and incubated at 37° C., 5% CO2 for 2h to remove adherent cells. Suspension cells were seeded in 96 well plates at 50,000 cells per well and incubated at 37° C., 5% CO2 for 1h. Splenocytes were pre-treated in triplicate with 10,000 nM curves of Formula 1 compounds for 1h, followed by stimulation of cell proliferation with 2.5 μg/ml anti-IgM
F(ab′)2 (Jackson ImmunoResearch) for 72 h. Cell proliferation was measured by Cell Titer-Glo Luminescent Assay (Promega). EC50 values (50% proliferation in the presence of compound as compared to vehicle treated controls) were calculated from dose response compound curves using GraphPad Prism Software.

In data set [2] the test system is TMD-8 human activated B cell diffuse large B cell lymphoma cells. The data set can be described thus: TMD-8 survival assay (Cell Titer-Glo). Type of data set: cell-based. Conditions: TMD8, TMD-8 cells, 72 h. As for the experimental part:
TMD-8 human activated B cell diffuse large B cell lymphoma cells were seeded in 96-well plates at a density of 20,000 cells/well in HyClone RPMI supplemented with 10% FBS (Fisher)/1% Penicillin/Streptomycin (HyClone) and incubated at 37° C., 5% CO2. Cells were treated in triplicate with 1,000 nM or 100 nM curves of compounds for 72h. Cell survival was measured by Cell Titer-Glo Luminescent Assay (Promega). EC50 values (50% proliferation in the presence of compound as compared to vehicle treated controls) were calculated from dose response compound curves using GraphPad Prism Software.

Data set [3] is described as follows: Formation of glutathione adducts (GSH reactivity, HPLC-UV). Type of data set: in vitro ADME. The following applies: 10 mM GSH, 20 micromolar test article, pH 7.4, 37° C. The protocol: Generation of non-specific thiol adducts can be measured by assaying reactivity of compounds with GSH. Formation of GSH adducts was measured by incubating GSH (10 mM) in 100 mM Phosphate Buffer pH 7.4 with test article at 20 micromolar final concentration. Briefly, 600 microliters of phosphate buffer pH 7.4 was added in a glass vial with 200 microliters of 100 micromolar test article in DMSO. Samples were warmed at 37° C. for 10 minutes and the reaction was initiated by the addition of 200 microliters of 50 mM reduced GSH in phosphate buffer pH 7.4 and incubated at 37° C. At various time points (0.5 min, 5 min, 15 min, 30 min, 60 min, 120 min and 180 min) 50 microliter aliquots were placed into an injection vial equipped with an insert and mixed with 50 microliters of 1% formic acid in 99% Methanol. Vials were loaded onto the HPLC injection tray and each sample was injected onto a C18 column (ACE 3 C18, 4.6×50 mm column) and both the parent and product were monitored by UV absorbance at 254 nm on an Agilent Technologies 1100 series HPLC. Peaks were integrated and the percentage of product present calculated as the percent of the total peak area on the parent and product at 60 minutes.

Data set [4] can be described thus: Mouse plasma pharmacokinetics. It counts as in vivo, mouse (CD-1). Conditions: male, CD-1, mouse, mice. The protocol:
Plasma pharmacokinetic studies were conducted in CD1 mice to compare the plasma exposure following oral and intravenous administration of the free-base form of each compound to mice and to calculate bioavailability. Male CD-1 mice (25-30 g on delivery; Charles River) were used for mouse PK studies. The mice were housed 3 per cage in a room under controlled conditions of temperature ([…]) and humidity (40-70%), with a 12 h dark/light cycle. The animals were acclimated for a minimum of 3 days prior to use and received standard rodent chow (Charles River) and municipal tap water ad libitum. Nine animals were used per study, they were dosed PO or IV and bled from the mandibular vein, 2 to 3 times per animal at the following time points; pre dose, 15 and 30 min, 1, 2, 3, 5, 7 and 24 h (0.1 mL whole blood /time point; composite PK). Blood was collected into microvette K3E tubes ([…]) at RT and then centrifuged at 5,000 RPM for 2 min at 4° C. in order to separate plasma. Isolated plasma (0.015 mL/time point) was pipetted into 96 well plates (Canadian Life Science) which were stored at minus 20° C. until analysis (2 duplicate plates per study).
Concentrations of compound in rodent plasma samples were determined by LC-MS-MS. Two standard curves containing 8 points each were prepared by spiking in methanol or plasma with a solution containing the test article at a defined concentration. The range of final compound concentration in the standard curve was 0 to 1 μg/mL. Three sets of quality control (QC) samples in plasma at low, medium and high concentration within the standard curve range were also prepared. For analysis, the compound was extracted using protein precipitation extraction procedure. Briefly, a three-fold volume of methanol containing an internal standard was added to the plasma and standard curve solution samples and then incubated at 4° C. for 5 minutes. The plates were centrifuged for 30 minutes at 4° C. at 4000 rpm and the resulting supernatant was transferred to a 96-well propylene plates and sealed with cover to avoid sample evaporation. Ten μL aliquots of extracted samples were injected using a 96-well plate autosampler held at 4° C. onto a ACE C18 50×4.6 mm, 3 um HPLC column held at 30° C. Plasma derived parent compound was eluted using the following conditions: pump flow rate was set at 1 mL/min for a five minutes chromatographic method using a 3 min gradient elution from 20% solvent A (0.1% formic acid in water) and 80% solvent B (0.1% Formic Acid in Methanol) to 10% solvent A and 90% solvent B. The method was followed by 1 min column wash at 95% solvent B and 1 min column re-equilibration back to 80% solvent B. Under these conditions the compound was eluted after 1.8 minutes. For LC-MS-MS compound detection, the curtain gas was set at 10, collision gas was set at 8, ion spray voltage was set at 4500, temperature was set at 500, ion source gas 1 was set at 40 and ion source gas 2 was set at 60. Using a positive ionization mode, the MRM transition monitored was set at […]. Under these conditions, standard curves were linear up to 2000 ng/mL, the lower limit of quantification was generally at 10 ng/mL.
The area under the curve (AUCtot and AUClast), the maximum plasma concentration (Cmax) and time (Tmax), and terminal half life (T1/2), clearance and volume of distribution were calculated by regression analysis using Kinetica version 5.0 (Thermo Fisher Scientific) using a Non-Compartmental Extravascular/IV Bolus analysis model.

Data set [5] deals with T1, human BTK (Homo sapiens, UniProt Q06187).
T1 construct: purchased Eurofins Pharma Discovery Services UK Limited (contract assay, KinaseProfiler)
The data set can be described thus: BTK kinase inhibition, KinaseProfiler radiometric protein kinase assay (Eurofins). It counts as biochemical. As for the experimental part: In vitro potency of selected compound was defined against human BTK, EGFR, and ErbB2 kinases using Kinase Profiler radiometric protein kinase assays performed at Eurofins Pharma Discovery Services UK Limited.
Each kinase is diluted in buffer and all compounds were prepared to 50x final assay concentration in 100% DMSO. This working stock of the compound was added to the assay well as the first component in the reaction, followed by the remaining components as detailed in the assay protocol listed above. The reaction was initiated by the addition of the MgATP mix. […] (specific activity approx. 500 cpm/pmol, concentration as required) and variable test article concentrations. […] The reaction was stopped by the addition of 3% phosphoric acid solution. 10 μL of the reaction is then spotted onto a P30 filtermat and washed three times for 5 minutes in 75 mM phosphoric acid and once in methanol prior to drying and scintillation counting. In addition positive control wells contain all components of the reaction, except the compound of interest; however, DMSO (at a final concentration of 2%) were included in these wells to control for solvent effects as well as blank wells contain all components of the reaction, with a reference inhibitor replacing the compound of interest. This abolishes kinase activity and establishes the base-line (0% kinase activity remaining). The potency of each compound was reported by estimating the EC50.

Data on six molecules can be found in patent publication US20200247808A1, “Heterocyclic Tec-Family Kinase Inhibitors” (GB005, Inc., priority 2015, published 2020).

The structures appear in SMILES notation. Where two headings read alike, the source gives them in different places.

T1 sequence (Q06187 whole entry): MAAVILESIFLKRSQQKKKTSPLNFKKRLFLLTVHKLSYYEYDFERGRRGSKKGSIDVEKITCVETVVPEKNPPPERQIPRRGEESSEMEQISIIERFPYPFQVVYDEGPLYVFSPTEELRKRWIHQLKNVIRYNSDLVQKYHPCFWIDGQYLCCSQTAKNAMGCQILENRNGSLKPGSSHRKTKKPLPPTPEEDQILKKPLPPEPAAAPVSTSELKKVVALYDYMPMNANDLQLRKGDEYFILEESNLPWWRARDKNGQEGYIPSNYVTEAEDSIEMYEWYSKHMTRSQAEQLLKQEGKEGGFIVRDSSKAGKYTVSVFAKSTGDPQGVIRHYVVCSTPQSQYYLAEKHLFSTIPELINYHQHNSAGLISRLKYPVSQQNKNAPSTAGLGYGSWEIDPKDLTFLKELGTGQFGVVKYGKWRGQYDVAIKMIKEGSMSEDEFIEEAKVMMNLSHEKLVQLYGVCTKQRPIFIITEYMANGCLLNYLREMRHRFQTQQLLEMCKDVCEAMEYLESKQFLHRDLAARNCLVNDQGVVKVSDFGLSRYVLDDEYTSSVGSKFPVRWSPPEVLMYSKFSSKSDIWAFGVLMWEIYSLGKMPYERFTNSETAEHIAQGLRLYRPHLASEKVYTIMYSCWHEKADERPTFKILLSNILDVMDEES

For the molecule `C=CC(=O)N1CCC[C@@H](n2nc(-c3ccc(Oc4ccccc4)cc3)c3c(N)ncnc32)C1` [Reference, 1-((R)-3-(4-amino-3-(4-phenoxyphenyl)-1H-pyrazolo[3,4-d]pyrimidin-1-yl)piperidin-1-yl)prop-2-en-1-one, reference compound], the EC50 was found to be 0.4 nM in data set [1] and 2 nM in data set [2]. Besides, in data set [3], the “GSH Reactivity GSH Conjugate at 60 minutes” value (from here on “GSH Reactivity GSH Conjugate”) was 31.7 % of total Peaks. Further, the AUC in data set [4] (intravenous 3 mg/kg, free base, read-out: Intravenous AUC) is 1.07 µg·h/mL; in data set [4] (oral 10 mg/kg, free base, read-out: Oral AUC), 0.349 µg·h/mL. The same molecule displayed a bioavailability in data set [4] (oral 10 mg/kg vs intravenous 3 mg/kg) of 9.8%. The same molecule returned a Cmax in data set [4] (oral 10 mg/kg, free base) of 0.219 µg/mL.
On to `CC#CC(=O)N(C)[C@H]1C[C@@H](n2nc(-c3ccc(Oc4ccccc4)cc3)c3c(N)ncnc32)C1` [Compound 4], for which the IC50 in data set [5] was 1 nM. Further, the values for the EC50 in data set [1] and in data set [2] were 0.8 nM and 5.4 nM, respectively. In addition, in data set [3], the “GSH Reactivity GSH Conjugate” value was 8.4 % of total Peaks.
In data set [5], `C=CC(=O)N[C@H]1C[C@@H](n2nc(-c3ccc(Oc4ccc(F)cc4F)cc3)c3c(N)ncnc32)C1` [Compound 3] showed an IC50 of 10 nM. Also, the figures for the EC50 in data set [1] and in data set [2] were 0.9 nM and 6.5 nM, respectively. The “GSH Reactivity GSH Conjugate” value in data set [3] is listed as 12.6 % of total Peaks.
In the same order, the values of `C=CC(=O)N(C)[C@H]1C[C@@H](n2nc(-c3ccc(Oc4ccccc4)cc3)c3c(N)ncnc32)C1` [Compound 5] are 0.7 nM, 0.5 nM, 1.9 nM and 28.9 % of total Peaks.
The corresponding values for `C=CC(=O)N[C@H]1C[C@@H](n2nc(-c3ccc(Oc4ccccc4)cc3F)c3c(N)ncnc32)C1` [Compound 6] are 3 nM, 0.4 nM, 3 nM and 12.6 % of total Peaks.
In the same order, the values of `CC#CC(=O)N[C@H]1C[C@@H](n2nc(-c3ccc(Oc4ccccc4)cc3F)c3c(N)ncnc32)C1` [Compound 7] are 1 nM, 0.4 nM, 1.5 nM and 5.9 % of total Peaks.
